In PubChem BioAssay AID328 (DTP/NCI, 2004):
Values joined by “and” are separate entries in the source; they are usually repeats but may differ in a detail not shown here. Equal values may be shown once. Inconclusive results and toxic doses are left out.

Test system: BDF1 mice, P388 leukemia ip, median survival T/C
Test: NCI In Vivo Anticancer Drug Screen. Data for tumor model P388 Leukemia (intraperitoneal) in B6D2F1 (BDF1) mice
Settings: endpoint: median survival time, higher = longer survival
How it was run: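 Reported as T/C, where T is the survival measurement in dosed animals and C the same measurement in vehicle controls.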

[1] = dose: 25.0 mg/kg/injection, schedule: Q01DX009 (ip), vehicle: saline with Tween-80
[2] = dose: 50.0 mg/kg/injection, schedule: Q01DX009 (ip), vehicle: saline with Tween-80
[3] = dose: 100.0 mg/kg/injection, schedule: Q01DX009 (ip), vehicle: saline with Tween-80
[4] = dose: 200.0 mg/kg/injection, schedule: Q01DX009 (ip), vehicle: saline with Tween-80
[5] = dose: 100.0 mg/kg/injection, schedule: Q01DX009 (ip), vehicle: saline
[6] = dose: 200.0 mg/kg/injection, schedule: Q01DX009 (ip), vehicle: saline
[7] = dose: 100.0 mg/kg/injection, schedule: Q04DX003 (ip), vehicle: saline
[8] = dose: 100.0 mg/kg/injection, schedule: Q04DX003 (ip), vehicle: saline with Tween-80
[9] = dose: 200.0 mg/kg/injection, schedule: Q04DX003 (ip), vehicle: saline with Tween-80
[10] = dose: 400.0 mg/kg/injection, schedule: Q01DX009 (ip), vehicle: saline with Tween-80
[11] = dose: 400.0 mg/kg/injection, schedule: Q04DX003 (ip), vehicle: saline with Tween-80

CO[C@@H]1[C@@H](OC2OC(C)C(OC3CC(C)(O)C(OC(=O)CC(C)C)C(C)O3)C(N(C)C)C2O)[C@@H](CC=O)C[C@@H](C)C(=O)/C=C/C2O[C@H]2C[C@@H](C)OC(=O)C[C@H]1OC(C)=O (stereo not given in full)
T/C (dose: 50.0 mg/kg/injection, schedule: Q#A X020 (ip), vehicle: water): 109 % of control
T/C (dose: 100.0 mg/kg/injection, schedule: Q01DX001 (ip), vehicle: water): 110 % of control
T/C (dose: 100.0 mg/kg/injection, schedule: Q01DX010 (ip), vehicle: water): 118 % of control
T/C (dose: 100.0 mg/kg/injection, schedule: Q#A X020 (ip), vehicle: water): 118 % of control
T/C (dose: 150.0 mg/kg/injection, schedule: Q#A X020 (ip), vehicle: water): 118 % of control
T/C (dose: 200.0 mg/kg/injection, schedule: Q01DX001 (ip), vehicle: water): 100 % of control
T/C (dose: 200.0 mg/kg/injection, schedule: Q01DX010 (ip), vehicle: water): 109 % of control
T/C (dose: 200.0 mg/kg/injection, schedule: Q#A X020 (ip), vehicle: water): 118 % of control
T/C (dose: 300.0 mg/kg/injection, schedule: Q01DX010 (ip), vehicle: water): 118 % of control
T/C (dose: 400.0 mg/kg/injection, schedule: Q01DX001 (ip), vehicle: water): 90 % of control
T/C (dose: 600.0 mg/kg/injection, schedule: Q01DX001 (ip), vehicle: water): 100 % of control
T/C (dose: 1000.0 mg/kg/injection, schedule: Q01DX010 (oral), vehicle: water): 86 % of control
T/C (dose: 1500.0 mg/kg/injection, schedule: Q01DX010 (oral), vehicle: water): 100 % of control

CC(C)CC(=O)CC1(C)CCC(c2ccoc2)O1 (stereo not given)
T/C [1]: 96 % of control and 100 % of control
T/C [2]: 97 % of control and 105 % of control
T/C [3]: 103 % of control and 110 % of control
T/C [4]: 117 % of control

CC(=O)OC1(C)CC(C)C(O)C(C(O)CC2CC(=O)NC(=O)C2)C1 (stereo not given)
T/C (dose: 0.5 mg/kg/injection, schedule: Q01DX010 (ip), vehicle: water): 120 % of control
T/C (dose: 2.0 mg/kg/injection, schedule: Q01DX010 (ip), vehicle: water): 150 % of control and 160 % of control
T/C (dose: 3.0 mg/kg/injection, schedule: Q01DX010 (ip), vehicle: water): 190 % of control
T/C (dose: 4.0 mg/kg/injection, schedule: Q01DX010 (ip), vehicle: water): 90 % of control and 110 % of control

S=C(Nc1ccccc1)N(C1CCCCC1)C1CCCCC1
T/C (dose: 100.0 mg/kg/injection, schedule: Q01DX001 (ip), vehicle: saline with Tween-80): 100 % of control
T/C (dose: 200.0 mg/kg/injection, schedule: Q01DX001 (ip), vehicle: saline with Tween-80): 103 % of control
T/C [4]: 155 % of control
T/C (dose: 400.0 mg/kg/injection, schedule: Q01DX001 (ip), vehicle: saline with Tween-80): 103 % of control

CCC(=O)/C=C/c1ccc(Cl)cc1
T/C [2]: 110 % of control
T/C [3]: 109 % of control
T/C [4]: 107 % of control

CC(C)(C)OC(=O)c1cccc(C(=O)OC(C)(C)C)c1
T/C (dose: 100.0 mg/kg/injection, schedule: Q04DX002 (ip), vehicle: saline with Tween-80): 103 % of control
T/C (dose: 200.0 mg/kg/injection, schedule: Q04DX002 (ip), vehicle: saline with Tween-80): 95 % of control
T/C (dose: 400.0 mg/kg/injection, schedule: Q04DX002 (ip), vehicle: saline with Tween-80): 94 % of control

CCc1cccc(CC)c1-n1c(C)ccc1-c1ccccc1
T/C (dose: 50.0 mg/kg/injection, schedule: Q01DX009 (ip), vehicle: saline + alcohol): 106 % of control
T/C (dose: 100.0 mg/kg/injection, schedule: Q01DX009 (ip), vehicle: saline + alcohol): 101 % of control
T/C (dose: 200.0 mg/kg/injection, schedule: Q01DX009 (ip), vehicle: saline + alcohol): 106 % of control

CC(=Nc1ccccc1)C1=C(O)C(Cc2ccccc2)NC1=O (stereo not given)
T/C [2]: 124 % of control

CC=C=C(C)CN
T/C (dose: 50.0 mg/kg/injection, schedule: Q01DX009 (ip), vehicle: saline): 96 % of control
T/C [5]: 96 % of control
T/C [6]: 92 % of control

c1nc(N2CC2)c2cnn(C3CCCCO3)c2n1 (stereo not given)
T/C (dose: 25.0 mg/kg/injection, schedule: Q04DX003 (ip), vehicle: saline): 109 % of control
T/C (dose: 50.0 mg/kg/injection, schedule: Q04DX003 (ip), vehicle: saline): 100 % of control
T/C (dose: 100.0 mg/kg/injection, schedule: Q01DX009 (ip), vehicle: Klucel (hydroxypropylcellulose) (HPC)): 95 % of control
T/C [7]: 100 % of control
T/C (dose: 150.0 mg/kg/injection, schedule: Q04DX003 (ip), vehicle: Klucel (hydroxypropylcellulose) (HPC)): 120 % of control
T/C (dose: 200.0 mg/kg/injection, schedule: Q01DX009 (ip), vehicle: Klucel (hydroxypropylcellulose) (HPC)): 116 % of control
T/C (dose: 225.0 mg/kg/injection, schedule: Q04DX003 (ip), vehicle: Klucel (hydroxypropylcellulose) (HPC)): 120 % of control

Cc1ccn(/C(N)=N/C(=S)Nc2ccccc2)n1
T/C (dose: 37.5 mg/kg/injection, schedule: Q01DX009 (ip), vehicle: saline with Tween-80): 108 % of control
T/C (dose: 75.0 mg/kg/injection, schedule: Q01DX009 (ip), vehicle: saline with Tween-80): 90 % of control
T/C (dose: 150.0 mg/kg/injection, schedule: Q01DX009 (ip), vehicle: saline with Tween-80): 114 % of control

CN(C)/C=C/C=C1C(=O)N(C)C(=O)N(C)C1=O
T/C (dose: 50.0 mg/kg/injection, schedule: Q01DX009 (ip), vehicle: other): 94 % of control
T/C (dose: 100.0 mg/kg/injection, schedule: Q01DX009 (ip), vehicle: other): 97 % of control
T/C (dose: 200.0 mg/kg/injection, schedule: Q01DX009 (ip), vehicle: other): 102 % of control

OCC(CO)(CO)CBr
T/C [5]: 110 % of control
T/C [7]: 90 % of control
T/C [6]: 110 % of control
T/C (dose: 200.0 mg/kg/injection, schedule: Q04DX003 (ip), vehicle: saline): 90 % of control
T/C (dose: 400.0 mg/kg/injection, schedule: Q01DX009 (ip), vehicle: saline): 88 % of control
T/C (dose: 400.0 mg/kg/injection, schedule: Q04DX003 (ip), vehicle: saline): 114 % of control

COC1(c2ccc([N+](=O)[O-])o2)OC1(C)C (stereo not given)
T/C (dose: 12.5 mg/kg/injection, schedule: Q01DX009 (ip), vehicle: saline with Tween-80): 111 % of control
T/C [1]: 118 % of control
T/C [2]: 113 % of control
T/C [3]: 111 % of control
T/C [8]: 99 % of control
T/C [4]: 117 % of control
T/C [9]: 107 % of control
T/C [10]: 108 % of control
T/C [11]: 109 % of control

Cc1nc(Br)c2cnccn12
T/C (dose: 12.5 mg/kg/injection, schedule: Q01DX009 (ip), vehicle: saline): 118 % of control
T/C (dose: 25.0 mg/kg/injection, schedule: Q01DX009 (ip), vehicle: saline): 109 % of control

CCSC(=O)N1c2ccc(OC)cc2C=CC1C#N (stereo not given)
T/C [3]: 164 % of control
T/C [4]: 180 % of control
T/C [10]: 190 % of control
T/C (dose: 600.0 mg/kg/injection, schedule: Q04DX003 (ip), vehicle: saline with Tween-80): 150 % of control

CC(=O)c1ccc2ccccc2c1O
T/C (dose: 100.0 mg/kg/injection, schedule: Q01DX001 (ip), vehicle: other): 90 % of control
T/C [3]: 104 % of control
T/C [8]: 109 % of control
T/C (dose: 175.0 mg/kg/injection, schedule: Q01DX009 (ip), vehicle: saline with Tween-80): 122 % of control
T/C (dose: 200.0 mg/kg/injection, schedule: Q01DX001 (ip), vehicle: other): 100 % of control
T/C [4]: 104 % of control
T/C [9]: 104 % of control
T/C (dose: 400.0 mg/kg/injection, schedule: Q01DX001 (ip), vehicle: other): 95 % of control
T/C [10]: 118 % of control
T/C [11]: 104 % of control
T/C (dose: 600.0 mg/kg/injection, schedule: Q01DX009 (ip), vehicle: saline with Tween-80): 113 % of control

CC1(c2ccco2)C(=O)NC(=O)N1C(=O)CCl (stereo not given)
T/C [2]: 100 % of control
T/C [3]: 100 % of control
T/C [8]: 96 % of control
T/C [9]: 96 % of control

C[As](C)Sc1ccnc(S[As](C)C)n1
T/C (dose: 50.0 mg/kg/injection, schedule: Q04DX003 (ip), vehicle: saline with Tween-80): 100 % of control
T/C [8]: 100 % of control
T/C [9]: 104 % of control

COc1cc2c3cc1Oc1c(OC)c(OC)cc4c1C(Cc1cc5c(c(c1)Oc1ccc(cc1)CC3N(C)CC2)OCO5)N(C)CC4 (stereo not given)
T/C (dose: 5.0 mg/kg/injection, schedule: Q01DX010 (ip), vehicle: saline): 90 % of control
T/C (dose: 20.0 mg/kg/injection, schedule: Q01DX010 (ip), vehicle: saline): 104 % of control
T/C (dose: 40.0 mg/kg/injection, schedule: Q01DX010 (ip), vehicle: saline): 95 % of control

Cc1ncc([N+](=O)[O-])n1CCn1nnc2c1CCCC2
T/C [9]: 210 % of control
T/C [11]: 114 % of control
